Data as given in US9499553B2 (CHUGAI SEIYAKU KABUSHIKI KAISHA, priority 2013, dated 2016).

target: T1, human NaPi-IIb (Homo sapiens, UniProt O95436); assay: Inhibitory effect on 33PO4 uptake into human NaPi-IIb-expressing CHO cells; format: cell-based; conditions: read-out: IC50
T1 construct: expressed in transfected cells
T1 sequence (O95436 1-690): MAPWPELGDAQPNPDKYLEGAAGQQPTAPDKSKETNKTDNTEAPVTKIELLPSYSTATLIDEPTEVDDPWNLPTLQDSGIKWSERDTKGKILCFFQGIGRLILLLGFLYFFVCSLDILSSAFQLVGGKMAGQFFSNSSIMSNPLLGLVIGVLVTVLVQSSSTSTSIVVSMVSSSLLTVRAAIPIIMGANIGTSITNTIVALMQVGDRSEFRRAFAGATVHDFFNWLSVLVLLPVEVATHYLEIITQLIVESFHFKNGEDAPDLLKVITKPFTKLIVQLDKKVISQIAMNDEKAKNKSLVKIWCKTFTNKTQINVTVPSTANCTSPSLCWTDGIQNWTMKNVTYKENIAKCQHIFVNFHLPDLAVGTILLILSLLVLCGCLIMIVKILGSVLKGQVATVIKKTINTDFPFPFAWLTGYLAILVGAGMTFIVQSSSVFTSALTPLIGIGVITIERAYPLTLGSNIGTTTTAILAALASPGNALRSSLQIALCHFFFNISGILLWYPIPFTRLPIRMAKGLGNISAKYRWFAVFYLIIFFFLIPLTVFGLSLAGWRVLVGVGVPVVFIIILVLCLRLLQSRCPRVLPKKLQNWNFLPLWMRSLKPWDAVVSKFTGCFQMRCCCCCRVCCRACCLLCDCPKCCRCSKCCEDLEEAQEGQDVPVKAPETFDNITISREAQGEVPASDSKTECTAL
Procedure, shortened: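 Stable human NaPi-IIb CHO line (G418-selected), plated and cultured overnight; ³³PO4 added in buffer A and uptake run at room temperature. Cells washed with ice-cold buffer A, then uptake counted by liquid scintillation.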

Point of comparison: `COC(=O)COc1ccc(CN2C(=O)C(C(=O)Nc3ccc(C(F)(F)F)cc3-c3ccc(C(F)(F)F)nc3)=C(O)[C@@]3(C)CCCN23)c(F)c1F` [Example 150], IC50 9 µM. Against it:
- CC(C)[C@H]1C(O)=C(C(=O)Nc2cc(F)c(Br)c(F)c2)C(=O)N(Cc2cccc(F)c2F)N1C [Example 254] — within 1.5-fold, 9.7 µM
- CN1[C@@H](C(C)(C)C)C(O)=C(C(=O)Nc2cnc(C(F)(F)F)nc2-c2ccc(C(F)(F)F)nc2)C(=O)N1Cc1ccc(OCCN2CCOCC2)c(F)c1F [Example 273] — within 1.5-fold, 13.2 µM
- CC(C)[C@@H]1C(O)=C(C(=O)Nc2ccc(Cl)cc2-c2cc(C(F)(F)F)ncn2)C(=O)N(Cc2cccc(F)c2F)N1C [Example 250] — 2-fold higher, 17.9 µM
- C[C@]12CCCN1N(Cc1ccc(F)cc1)C(=O)C(C(=O)Nc1ccc(C(F)(F)F)cc1-c1ccc(C(F)(F)F)nc1)=C2O [Example 199] — 5-fold lower, 1.8 µM
- C[C@]12CCCN1N(Cc1cccc(F)c1F)C(=O)C(C(=O)Nc1ccc(C(F)(F)F)cc1-c1cnc(Cl)c(C#N)c1)=C2O [Example 68, (4aR)—N-[2-(6-Chloro-5-cyanopyridin-3-yl)-4-(trifluoromethyl)phenyl]-1-[(2,3-difluorophenyl)methyl]-4-hydroxy-4a-methyl-2-oxo-6,7-dihydro-5H-pyrrolo[1,2-b]pyridazine-3-carboxamide] — 3.5-fold lower, 2.6 µM
- COc1cccc(-c2cc(C(F)(F)F)ccc2NC(=O)C2=C(O)[C@@]3(C)CCCN3N(Cc3ccc(C#CCCO)c(F)c3F)C2=O)c1OC [Example 134] — 2.2-fold higher, 19.7 µM
- CN1[C@@H](C(C)(C)C)C(O)=C(C(=O)Nc2ccc(C(F)(F)F)cc2-c2ccc(C(F)(F)F)nc2)C(=O)N1Cc1cccc(F)c1F [Example 238] — within 1.5-fold, 8.5 µM
- COC(=O)c1cccc(CN2C(=O)C(C(=O)Nc3ccc(C(F)(F)F)cc3-c3cc(C(F)(F)F)ncn3)=C(O)[C@@]3(C)CCCN23)c1 [Example 183] — within 1.5-fold, 9.1 µM
- Cc1c(-c2cc(C(F)(F)F)ccc2NC(=O)C2=C(O)C3(CCCC3)N(C)N(Cc3ccc(OCCN4CCOCC4)c(F)c3F)C2=O)ncnc1C(F)(F)F [Example 290] — within 1.5-fold, 7 µM
- C[C@]12CCCN1N(Cc1cccc(F)c1F)C(=O)C(C(=O)Nc1ccc(Br)cn1)=C2O [Example 78] — 1.7-fold lower, 5.2 µM
- COc1cc(C)c(-c2cc(C(F)(F)F)ccc2NC(=O)C2=C(O)[C@@]3(C)CCCN3N(Cc3cccc(F)c3F)C2=O)cn1 [Example 80] — within 1.5-fold, 12.5 µM
- CN1N(Cc2ccc(OCCN3CCOC(C)(C)C3)c(F)c2F)C(=O)C(C(=O)Nc2ccc(C(F)(F)F)cc2-c2cc(C(F)(F)F)ncn2)=C(O)C12CCC2 [Example 342] — within 1.5-fold, 8.8 µM
- COc1cncc(-c2cc(C(F)(F)F)ccc2NC(=O)C2=C(O)[C@@]3(C)CCCN3N(Cc3cccc(F)c3F)C2=O)c1 [Example 81] — 1.9-fold higher, 17.5 µM
- CN1[C@@H](C(C)(C)C)C(O)=C(C(=O)Nc2ccc(Br)c(C(F)(F)F)c2)C(=O)N1Cc1cccc(F)c1F [Example 243] — within 1.5-fold, 7.4 µM
- C[C@]12CCCN1N(Cc1cccc(F)c1Cl)C(=O)C(C(=O)Nc1cc(F)c(Br)c(F)c1)=C2O [Example 174] — 4.1-fold lower, 2.2 µM
- Cc1cc(-c2cc(C(F)(F)F)ccc2NC(=O)C2=C(O)[C@@]3(C)CCCN3N(Cc3cccc(F)c3F)C2=O)cnc1C#N [Example 101] — within 1.5-fold, 9.4 µM
- Cc1c(C#N)ncnc1-c1cc(Cl)ccc1NC(=O)C1=C(O)[C@H](C(C)(C)C)N(C)N(Cc2ccc(OCCN3CCOCC3)c(F)c2F)C1=O [Example 274] — 1.9-fold higher, 17 µM
- CN1N(Cc2ccc(OCCN3CCOC(=O)C3)c(F)c2F)C(=O)C(C(=O)Nc2ccc(C(F)(F)F)cc2-c2cc(C(F)(F)F)ncn2)=C(O)C12CCC2 [Example 337, 8-[[2,3-Difluoro-4-[2-(2-oxomorpholin-4-yl)ethoxy]phenyl]methyl]-5-hydroxy-9-methyl-7-oxo-N-[4-(trifluoromethyl)-2-[6-(trifluoromethyl)pyrimidin-4-yl]phenyl]-8,9-diazaspiro[3.5]non-5-ene-6-carboxamide] — 1.9-fold higher, 17 µM
- C[C@]12CCCN1N(Cc1ccc(CCCCCCC(=O)O)c(F)c1F)C(=O)C(C(=O)Nc1ccc(Cl)cc1-c1ccc(C(F)(F)F)nc1)=C2O [Example 116, 7-[4-[[(4aR)-3-[[4-Chloro-2-[6-(trifluoromethyl)pyridin-3-yl]phenyl]carbamoyl]-4-hydroxy-4a-methyl-2-oxo-6,7-dihydro-5H-pyrrolo[1,2-b]pyridazin-1-yl]methyl]-2,3-difluorophenyl]heptanoate] — within 1.5-fold, 8.1 µM
- C[C@H]1COC[C@H](C)N1CCOc1ccc(CN2C(=O)C(C(=O)Nc3ccc(C(F)(F)F)cc3-c3cc(C(F)(F)F)ncn3)=C(O)C3(CCC3)N2C)c(F)c1F [Example 343] — 2.3-fold higher, 21 µM
- CSc1ccc(-c2cc(C(F)(F)F)ccc2NC(=O)C2=C(O)[C@H](C(C)(C)C)N(C)N(Cc3ccc(OCCN4CCOCC4)c(F)c3F)C2=O)cn1 [Example 268] — within 1.5-fold, 7.4 µM

same assay, conditions: read-out: IC50 against 33PO4 uptake into human NaPi-IIb-expressing cells

Point of comparison: `COCCN(C)CCOc1c(-c2cccnc2)cc(CN2C(=O)C(C(=O)Nc3ccc(C(F)(F)F)cc3-c3cc(C(F)(F)F)ncn3)=C(O)C3(CCCC3)N2C)c(F)c1F` [Example 440, 9-[[2,3-Difluoro-4-[2-[2-methoxyethyl(methyl)amino]ethoxy]-5-(3-pyridinyl)phenyl]methyl]-6-hydroxy-10-methyl-8-oxo-N-[4-(trifluoromethyl)-2-[6-(trifluoromethyl)pyrimidin-4-yl]phenyl]-9,10-diazaspiro[4.5]dec-6-ene-7-carboxamide], IC50 22.6 µM. Against it:
- C[C@@H]1COC[C@H](C)N1CCOc1ccc(CN2C(=O)C(C(=O)Nc3ccc(C(F)(F)F)cc3-c3cc(C(F)(F)F)ncn3)=C(O)C3(CCCC3)N2C)c(F)c1F [Example 370] — within 1.5-fold, 18.2 µM
- CN(CCOCCC(=O)N(C)C[C@H](O)[C@@H](O)[C@H](O)[C@H](O)CO)CCOc1ccc(CN2C(=O)C(C(=O)Nc3ccc(C(F)(F)F)cc3-c3cc(C(F)(F)F)ncn3)=C(O)C3(CCCC3)N2C)c(F)c1F [Example 425] — within 1.5-fold, 28.1 µM
- COC(=O)CN(C)CCOc1ccc(CN2C(=O)C(C(=O)Nc3ccc(C(F)(F)F)cc3-c3cc(C(F)(F)F)ncn3)=C(O)C3(CCCC3)N2C)c(F)c1F [Example 368] — 1.5-fold lower, 14.7 µM
- COCCN1CC(Oc2ccc(CN3C(=O)C(C(=O)Nc4ccc(C(F)(F)F)cc4-c4cc(C(F)(F)F)ncn4)=C(O)C4(CCC4)N3C)c(F)c2F)C1 [Example 406, 6-[[2,3-Difluoro-4-[1-(2-methoxyethyl)azetidin-3-yl]oxyphenyl]methyl]-9-hydroxy-5-methyl-7-oxo-N-[4-(trifluoromethyl)-2-[6-(trifluoromethyl)pyrimidin-4-yl]phenyl]-5,6-diazaspiro[3.5]non-8-ene-8-carboxamide] — within 1.5-fold, 23.1 µM
- COCCN(C)CCN(C)c1ccc(CN2C(=O)C(C(=O)Nc3ccc(C(F)(F)F)cc3-c3cc(C(F)(F)F)ncn3)=C(O)C3(CCCC3)N2C)c(F)c1F [Example 442] — 3.6-fold lower, 6.3 µM
- CN1N(Cc2ccc(OCCOCCNCC(O)CO)c(F)c2F)C(=O)C(C(=O)Nc2ccc(C(F)(F)F)cc2-c2cc(C(F)(F)F)ncn2)=C(O)C12CCCC2 (centres unmarked) [Example 419, 7-[[4-[2-[2-(2,3-Dihydroxypropylamino)ethoxy]ethoxy]-2,3-difluorophenyl]methyl]-10-hydroxy-6-methyl-8-oxo-N-[4-(trifluoromethyl)-2-[6-(trifluoromethyl)pyrimidin-4-yl]phenyl]-6,7-diazaspiro[4.5]dec-9-ene-9-carboxamide] — within 1.5-fold, 24.8 µM
- CN(CCOc1ccc(CN2C(=O)C(C(=O)Nc3ccc(C(F)(F)F)cc3-c3cc(C(F)(F)F)ncn3)=C(O)C3(CCCC3)N2C)c(F)c1F)C1CCOCC1 [Example 365] — 1.9-fold lower, 12.2 µM
- COCCN(C)CCOCCOc1ccc(CN2C(=O)C(C(=O)Nc3ccc(C(F)(F)F)cc3-c3cc(C(F)(F)F)ncn3)=C(O)C3(CCCC3)N2C)c(F)c1F [Example 429, 7-[[2,3-Difluoro-4-[2-[2-[2-methoxyethyl(methyl)amino]ethoxy]ethoxy]phenyl]methyl]-10-hydroxy-6-methyl-8-oxo-N-[4-(trifluoromethyl)-2-[6-(trifluoromethyl)pyrimidin-4-yl]phenyl]-6,7-diazaspiro[4.5]dec-9-ene-9-carboxamide] — 2.9-fold lower, 7.7 µM
- COCCN(C)CCOc1c(I)cc(CN2C(=O)C(C(=O)Nc3ccc(C(F)(F)F)cc3-c3cc(C(F)(F)F)ncn3)=C(O)C3(CCCC3)N2C)c(F)c1F [Example 437, 7-[[2,3-Difluoro-5-iodo-4-[2-[2-methoxyethyl(methyl)amino]ethoxy]phenyl]methyl]-10-hydroxy-6-methyl-8-oxo-N-[4-(trifluoromethyl)-2-[6-(trifluoromethyl)pyrimidin-4-yl]phenyl]-6,7-diazaspiro[4.5]dec-9-ene-9-carboxamide] — within 1.5-fold, 19.5 µM
- CN1N(Cc2ccc(OCCOCCOCCOCCC(=O)NCC(O)CO)c(F)c2F)C(=O)C(C(=O)Nc2ccc(C(F)(F)F)cc2-c2cc(C(F)(F)F)ncn2)=C(O)C12CCCC2 (centres unmarked) [Example 424] — within 1.5-fold, 29 µM
- COCCN(C)CCN(c1ccc(CN2C(=O)C(C(=O)Nc3ccc(C(F)(F)F)cc3-c3cc(C(F)(F)F)ncn3)=C(O)C3(CCCC3)N2C)c(F)c1F)C(C)C [Example 445] — 2.5-fold lower, 9.2 µM
- CN1N(Cc2ccc(OCCN3CCN(CCOCCO)CC3)c(F)c2F)C(=O)C(C(=O)Nc2ccc(C(F)(F)F)cc2-c2cc(C(F)(F)F)ncn2)=C(O)C12CCCC2 [Example 378] — within 1.5-fold, 18 µM
